Experiments:
MC3 receptor (MC3R) = target: T1, MC3 receptor (MC3R) (Homo sapiens, UniProt P41968); experiment: Nle4, D-Phe7-α-MSH inhibition at the MC3 receptor (competition binding, SPA, CHO-CRE MC3R membranes)
T1 construct: expressed in transfected cells; host or cells: CHO-CRE MC3R cells (membranes)
Excerpt: Nle4, D-Phe7-α-MSH Inhibition at the MC3 Receptor
Nle4, D-Phe7-α-MSH is a stable analogue of melanocyte-stimulating hormone (MSH), which is an agonist at the MC3 receptor (MC3R). Compounds can be evaluated for their ability to inhibit Nle4, D-Phe7-α-MSH binding to membranes from cells expressing the MC3R using a competition binding assay versus [^125I] Nle4, D-Phe7-α-MSH.
Cells expressing the MC3R were subject to homogenisation and the membrane fragment isolated by differential centrifugation. CHO-CRE MC3R cell membranes were coupled to PVT-PEI-WGA SPA Beads type A for 2 hours, spun at 1000 RPM for 5 mins and suspended to a final assay concentration of 800 ug bead/ml (1.2 ug membrane, 40 ug bead per well). Bead/membrane mix was incubated with 0.06 nM [^125I] Nle4, D-Phe7-α-MSH and 11 half-log concentrations of competitor ligand, in duplicate, in a total volume of 50 μl buffer per well (25 mM HEPES, 1 mM MgCl2, 2.5 mM CaCl2, 1% Pluronic F68, 1 complete EDTA protease inhibitor tablet/50 ml pH7). Non-specific binding was determined by the inclusion of 100 nM SHU9119. The reaction was initiated by the addition of bead/membranes and plates were incubated at room temperature for 12 hours (the first hour on a plate shaker), after which the amount of radioactivity present was determined using a Wallac plate counter. Ki values were determined by data analysis using appropriate software.

[1] = In vitro metabolism rate determination, human liver microsome (HLM) assay; type: in vitro ADME; conditions: human, liver microsomes, read-out: HLM: Clint, app
Excerpt: In Vitro Metabolism Rate Determination (Human Liver Microsome (HLM); Rat Liver Microsome (RLM) Assay)
Many drugs are metabolised by the cytochrome P450 mono-oxygenase system. This enzyme is found in high concentrations in the liver and is bound to the endoplasmic reticulum of the hepatocyte. The enzyme system can be obtained in semi-purified state by the preparation of the hepatic microsomal fractions. Determining a compound's in vitro half-life in such a system provides a useful indicator of metabolic stability.
Methodology for In Vitro Rate Determination Using Hepatic & Supermix Microsomes
The method outlined below is for a total incubation volume of 1.5 ml.
1. The following mixture is prepared in a test tube:
2. Defrost microsomes at room temperature and add sufficient microsomes to give a final concentration of 0.5 nmol cytochrome P450/ml of incubation e.g. for a 1.5 ml incubation, the volume of microsomes to be added is:
3. Add sufficient MilliQ water to give a total incubation volume of 1.425 ml.
6. Add substrate to the incubation. The substrate should be at an initial concentration of 1 μM. The volume of substrate required in the remaining 1.162.5 ml incubation is calculated as follows: […]
8. Pre-incubate the tube containing the incubation mix, also positive control and no cofactor tubes in the thermostatically controlled shaking water bath set at 37° C. for approx 5 min.
9. Add NADP to initiate reaction (75 μl to each 1.162.5 ml incubation mix, 12.5 μl to positive control tube and 5 μl to no substrate tube) and take first time point immediately. The PNA positive control, no cofactor control and no substrate tubes are incubated for the total incubation time.
10. Remove 100 μl aliquots up to 9 different sampling points from 0 to 60 min (usually 0, 3, 5, 10, 15, 20, 30, 45 & 60 min) and terminate reaction. Longer incubation times can be used, but, after 120 min the microsomes deteriorate. The reaction may be terminated by addition of organic solvent, acid or base. At the end of the incubation process the no cofactor and no substrate controls in a similar manner i.e. terminate with the same reagent.
11. Analyse samples (including no cofactor and no substrate control) by a specific assay for the substrate to determine the disappearance kinetics.
Data obtained using the procedure described above can be quantified in terms of the substrates in vitro intrinsic clearance (Clint). Providing that the substrate concentration is below Km, the metabolism should be 1st order giving a log-linear plot of substrate disappearance with time.
The gradient of this line is the first order rate constant (k) for the substrate disappearance and is determined by regression analysis. This rate constant can be converted to the half-life according to the following equation.
Alternatively the rate constant can be converted to an intrinsic clearance (Clint) according to the following equation:— Clint(μl/min/mg)=(k/protein concentration in incubation (mg/ml))*1000

MC4 receptor = MC4 receptor (Homo sapiens, UniProt P32245); experiment: MC4 EC50 functional potency (protocol E of US2005/0176772 / WO 2005/077935); type: cell-based
Method: The compounds of formula (I) of the present invention have utility as MCR4 agonists in the treatment of various disease states.
MC5 and MC4 EC50 activity was determined as described by assay protocols D and E, respectively, in US2005/0176772 (pages 28-30).

CYP3A4 = target: T2, CYP3A4 (Homo sapiens, UniProt P08684); experiment: High density DDI 3 μM cocktail screen in human liver microsomes, midazolam probe; type: in vitro ADME; conditions: human, liver microsomes, probe midazolam, read-out: % inhibition 3A4 @ 3 μM
T2 construct: utilizes human liver microsomes together with isoform-specific clinical drug probes; from tissue; host or cells: human liver microsomes
Method: High Density Drug-Drug Interactions (DDI) 3 μM Cocktail Screen
A drug interaction is a situation in which a substance affects the activity of another drug, i.e. the effects are increased or decreased, or together they produce a new effect that neither produces on its own. Drug interactions may be the result of various processes but a relatively common one is where one drug affects the pharmacokinetics of another by inhibiting the cytochrome P450 that metabolises it. Because of the importance of these phenomena, assessment of the DDI potential for new chemical entities (NCEs) is considered important early on in the drug discovery process.
The DDI cocktail screen in human liver microsomes (HLM) is run in a fully automated fashion and the aim of the screen is to provide a single-point assessment of the DDI potential of new chemical entity (NCE; tested at […]) against the 4 primary cytochrome P450 enzymes, 1A2, 2D6, 2C9 and 3A4.
The substrate cocktail approach for P450 DDI utilizes human liver microsomes together with isoform-specific clinical drug probes and permits the simultaneous measurement of the inhibition of P450 1A2, 2C9, 2D6 & 3A4 activities in a single incubation. This is run in high throughput with simultaneous detection of metabolites by LC-MS/MS. This method has been thoroughly tested and evaluated using standard compounds.
Appearance of the metabolite of each substrate is measured over time in the presence and absence of the NCE (test compound/inhibitor) at a concentration of 3 μM. The compounds are assessed for their inhibitory potential as a percentage value and interpreted using the following scheme.

T2 sequence (P08684 whole entry, canonical isoform): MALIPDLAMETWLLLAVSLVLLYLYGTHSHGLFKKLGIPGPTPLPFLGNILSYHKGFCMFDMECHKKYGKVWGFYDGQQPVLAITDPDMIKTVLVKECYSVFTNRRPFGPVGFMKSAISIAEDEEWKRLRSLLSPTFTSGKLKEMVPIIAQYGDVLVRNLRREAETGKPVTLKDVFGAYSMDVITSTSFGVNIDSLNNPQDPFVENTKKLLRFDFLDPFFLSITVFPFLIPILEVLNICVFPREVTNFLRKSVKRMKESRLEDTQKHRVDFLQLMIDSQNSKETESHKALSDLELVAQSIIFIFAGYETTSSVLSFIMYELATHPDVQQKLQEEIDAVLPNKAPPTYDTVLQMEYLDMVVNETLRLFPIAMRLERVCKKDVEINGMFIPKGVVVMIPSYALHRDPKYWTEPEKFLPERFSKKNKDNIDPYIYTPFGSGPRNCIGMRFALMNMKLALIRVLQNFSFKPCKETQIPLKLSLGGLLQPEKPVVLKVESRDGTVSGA
T1 sequence (P41968 whole entry): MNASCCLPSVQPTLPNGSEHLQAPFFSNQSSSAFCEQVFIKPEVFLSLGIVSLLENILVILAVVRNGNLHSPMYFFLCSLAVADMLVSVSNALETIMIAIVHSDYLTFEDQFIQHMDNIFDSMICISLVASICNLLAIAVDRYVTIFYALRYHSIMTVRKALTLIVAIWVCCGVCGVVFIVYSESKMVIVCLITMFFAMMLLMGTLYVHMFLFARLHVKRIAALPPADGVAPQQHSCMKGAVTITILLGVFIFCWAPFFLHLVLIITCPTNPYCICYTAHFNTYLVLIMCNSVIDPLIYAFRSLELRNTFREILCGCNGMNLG
MC4 receptor, sequence (P32245 whole entry): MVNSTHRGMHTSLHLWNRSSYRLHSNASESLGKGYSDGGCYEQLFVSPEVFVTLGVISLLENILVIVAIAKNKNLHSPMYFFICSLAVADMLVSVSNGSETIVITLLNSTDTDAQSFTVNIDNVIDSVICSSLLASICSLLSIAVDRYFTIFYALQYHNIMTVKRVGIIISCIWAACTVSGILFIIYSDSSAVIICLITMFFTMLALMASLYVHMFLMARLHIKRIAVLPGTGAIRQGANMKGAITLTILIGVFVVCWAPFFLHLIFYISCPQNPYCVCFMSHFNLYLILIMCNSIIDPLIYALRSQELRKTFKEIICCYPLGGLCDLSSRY

Ki (MC3 receptor (MC3R)) | microsomal CLint at 1 μM [1] | EC50 (MC4 receptor) | inhibition at 3 µM (CYP3A4) | Structure (SMILES)
4.9 µM | 29.3 µL/min/mg | 0.0145 µM | 18.9% | COc1ccc([C@@H]2CN(c3cccnn3)C[C@H]2C(=O)N2CCC(c3ccc(Cl)cc3)N(C(C)=O)CC2)c(F)c1 (mixture of isomers) [Example 93]
6.69 µM | 78.1 µL/min/mg | 0.0256 µM | 46.6% | COc1ccc([C@@H]2CN(c3cccnn3)C[C@H]2C(=O)N2CCC(c3ccc(Cl)cc3)N(S(C)(=O)=O)CC2)c(F)c1 (mixture of isomers) [Example 94]
4.04 µM | 41.7 µL/min/mg | 0.00818 µM | 41.9% | COC(=O)N1CCN(C(=O)[C@@H]2CN(c3cccnn3)C[C@H]2c2ccc(OC)cc2F)CCC1c1ccc(Cl)cc1 (mixture of isomers) [Example 95]
10.1 µM | 26.2 µL/min/mg | 0.0119 µM |  | CC(C)(C)N1C[C@@H](C(=O)N2CCC[C@@H](c3ccc(Cl)cc3)N(C(=O)C3CC3)CC2)[C@H](c2ccc(F)cc2F)C1 [Example 7]
 | 13.9 µL/min/mg | 0.00211 µM | 42.3% | CC(C)C(=O)N1CCN(C(=O)[C@@H]2CN(c3ccc(=O)n(C)n3)C[C@H]2c2ccc(Cl)cn2)CCC[C@H]1c1ccc(Cl)cc1 [Example 37, 6-[(3S,4S)-3-{[5S-(4-chlorophenyl)-4-isobutyryl-1,4-diazocan-1-yl]carbonyl}-4-(5-chloropyridin-2-yl)pyrrolidin-1-yl]-2-methylpyridazin-3(2H)-one]
 | 173 µL/min/mg | 0.00558 µM | 54.5% | CCN(CC)C(=O)N1CCN(C(=O)[C@@H]2CN(C(C)(C)C)C[C@H]2c2ccc(F)cc2F)CCC[C@H]1c1ccc(Cl)cc1 [Example 44, 4-{[(3S,4R)-1-tert-butyl-4-(2,4-difluorophenyl)pyrrolidin-3-yl]carbonyl}-8S-(4-chlorophenyl)-N,N-diethyl-1,4-diazocane-1-carboxamide]
 | 71.1 µL/min/mg | 0.0197 µM | 27.3% | CC(C)(C)N1C[C@@H](C(=O)N2CCC[C@@H](c3ccc(Cl)cc3)N(C(=O)N3CCOCC3)CC2)[C@H](c2ccc(F)cc2F)C1 [Example 46]
 | 20.6 µL/min/mg | 0.00511 µM | 54.2% | COC(=O)N1CCN(C(=O)[C@@H]2CN(c3ccc(=O)n(C)n3)C[C@H]2c2ccc(Cl)cn2)CCC[C@H]1c1ccc(Cl)cc1 [Example 47, methyl 8S-(4-chlorophenyl)-4-{[(3S,4S)-4-(5-chloropyridin-2-yl)-1-(1-methyl-6-oxo-1,6-dihydropyridazin-3-yl)pyrrolidin-3-yl]carbonyl}-1,4-diazocane-1-carboxylate]
0.212 µM |  | 0.00329 µM | 75.2% | COC(=O)N1CCN(C(=O)[C@@H]2CN(c3ccc4nncn4n3)C[C@H]2c2ccc(Cl)cn2)CCC[C@@H]1c1ccc(Cl)cc1 [Example 51]
 | 27.7 µL/min/mg | 0.0147 µM | 58.5% | CC(C)OC(=O)N1CCN(C(=O)[C@@H]2CN(C(C)(C)C)C[C@H]2c2ccc(F)cc2F)CCC[C@H]1c1ccc(Cl)cc1 [Example 53]
0.154 µM | 9.75 µL/min/mg | 0.00516 µM | 70.6% | COC(=O)N1CCN(C(=O)[C@@H]2CN(c3ccc(C#N)nn3)C[C@H]2c2ccc(F)cc2F)CCC[C@H]1c1ccc(Cl)cc1 [Example 55]
 | 55.4 µL/min/mg | 0.0252 µM | 38.4% | CC(C)(C)N1C[C@@H](C(=O)N2CCC[C@@H](c3ccc(Cl)cc3)N(C(=O)C3CCOCC3)CC2)[C@H](c2ccc(F)cc2F)C1 [Example 59, 1-{[(3S,4R)-1-tert-butyl-4-(2,4-difluorophenyl)pyrrolidin-3-yl]carbonyl}-5S-(4-chlorophenyl)-4-(tetrahydro-2H-pyran-4-ylcarbonyl)-1,4-diazocane]
 | 13.9 µL/min/mg | 0.0253 µM | 40% | CC(C)(C)N1C[C@@H](C(=O)N2CCC[C@@H](c3ccc(Cl)cc3)N(C(=O)C3CC(F)(F)C3)CC2)[C@H](c2ccc(F)cc2F)C1 [Example 61]
 | 9.43 µL/min/mg | 0.0853 µM | 55.6% | CC(C)(C)N1C[C@@H](C(=O)N2CCC[C@@H](c3ccc(Cl)cc3)N(C(=O)C3CC(F)(F)C3)CC2)[C@H](c2ccc(Cl)cn2)C1 [Example 63]
6.86 µM | 23.1 µL/min/mg | 0.0166 µM |  | CC(C)(C)N1C[C@@H](C(=O)N2CCC[C@@H](c3ccc(Cl)cc3)N(C(=O)CC3CC3)CC2)[C@H](c2ccc(F)cc2F)C1 [Example 65]
 | 31.3 µL/min/mg | 0.000852 µM | 76.9% | COC(=O)N1CCN(C(=O)[C@@H]2CN(c3ccc4nncn4n3)C[C@H]2c2ccc(F)cc2F)CCC[C@H]1c1ccc(Cl)cc1 [Example 96]

Reference: patent US8592403B2, “Diazepine and diazocane compounds as MC4 agonists” (Pfizer Limited, priority 2008, dated 2013)
